In ChEMBL document CHEMBL3098110, “Modulating the interaction between CDK2 and cyclin A with a quinoline-based inhibitor” (Bioorg Med Chem Lett, 2014):

Tests used:
[1] = target: T1, Cyclin-dependent kinase 2 (Homo sapiens, UniProt P24941)
[2] = target: T1, Cyclin-dependent kinase 2; remark: listed apart in the source
Description: Inhibition of CDK2 (unknown origin)-cyclin A interaction preincubated for 30 mins at room temperature followed by incubation at 40 degC for 30 mins by SDS-PAGE analysis

[3] = target: T1, Cyclin-dependent kinase 2; remark: listed apart in the source
Description: Displacement of B-Alexa-Fluor647 from CDK2 (unknown origin) by fluorescence polarization assay

[4] = target: T1, Cyclin-dependent kinase 2; remark: listed apart in the source
Description: Binding affinity to human CDK2 by isothermal titration calorimetric analysis

| SMILES | Kd [1] [µM] | IC50 [2] [µM] | Ki [3] [µM] | Kd [4] [µM] |
| --- | --- | --- | --- | --- |
| COC[C@H](Cc1ccc(O)cc1)NC(=O)c1cc(C(=O)O)c2cc(/C=C/c3ccc(Cl)cc3)ccc2n1 | 0.025 | > 10 | < 0.1 |  |
| C[C@H](Cc1ccc(O)cc1)NC(=O)c1cc(C(=O)O)c2cc(-c3cccc(C(F)(F)F)c3)ccc2n1 | 4 | > 10 | 2.5 |  |
| COC(=O)[C@H](Cc1ccc(O)cc1)NC(=O)c1cc(C(N)=O)c2cc(-c3cccs3)ccc2n1 | > 40 | > 10 | > 40 |  |
| COC(=O)[C@H](Cc1ccc(O)cc1)NC(=O)c1cc(C(=O)O)c2cc(-c3ccccc3)ccc2n1 | 12 | > 10 | 10 |  |
| COC(=O)[C@H](Cc1ccc(O)cc1)NC(=O)c1cc(C(=O)O)c2cc(/C=C/c3ccc(Cl)cc3)ccc2n1 | 0.005 | > 10 | < 0.1 |  |
| CCC[C@H](Cc1ccc(O)cc1)NC(=O)c1cc(C(=O)O)c2cc(-c3cccc(C(F)(F)F)c3)ccc2n1 | 0.4 | > 10 | 0.3 |  |
| COC[C@H](Cc1ccc(O)cc1)NC(=O)c1cc(C(=O)O)c2cc(-c3cccc(C(F)(F)F)c3)ccc2n1 | 0.24 | > 10 | 0.1 |  |
| COC(=O)[C@H](Cc1ccc(O)cc1)NC(=O)c1cc(C(=O)O)c2cc(-c3cccs3)ccc2n1 | 1.1 | > 10 | 0.9 | 1 |
| COC(=O)[C@H](Cc1ccc(O)cc1)NC(=O)c1cc(C(=O)O)c2cc(CCc3ccc(Cl)cc3)ccc2n1 | 0.048 | > 10 | < 0.1 | 0.055 |
| COC(=O)[C@H](Cc1ccc(O)cc1)NC(=O)c1cc(C(=O)O)c2cc(N3CCOCC3)ccc2n1 | 2.4 | > 10 | 2.8 |  |
| COC(=O)[C@H](Cc1ccc(OC)cc1)NC(=O)c1cc(C(=O)O)c2cc(-c3cccc(C(F)(F)F)c3)ccc2n1 | > 40 | > 10 | > 40 |  |
| COC(=O)[C@H](Cc1ccc(O)cc1)NC(=O)c1cc(C(=O)O)c2cc(-c3cc(Cl)cc(Cl)c3)ccc2n1 | 0.32 | > 10 | 0.2 |  |
| CNC(=O)[C@H](Cc1ccc(O)cc1)NC(=O)c1cc(C(=O)O)c2cc(/C=C/c3ccc(Cl)cc3)ccc2n1 | 0.3 | > 10 | 0.1 |  |

The next lines start with the values.

| Kd [1] [µM] | IC50 [2] [µM] | Ki [3] [µM] | Kd [4] [µM] | SMILES |
| --- | --- | --- | --- | --- |
| 0.35 | > 10 | 0.16 |  | CN(C)C(=O)[C@H](Cc1ccc(O)cc1)NC(=O)c1cc(C(=O)O)c2cc(/C=C/c3ccc(Cl)cc3)ccc2n1 |
| > 40 | > 10 | > 40 |  | COC(=O)[C@H](Cc1ccc(O)cc1)NC(=O)c1cc(C(=O)NS(C)(=O)=O)c2cc(-c3cccs3)ccc2n1 |
| > 40 | > 10 | > 40 |  | O=C(NCCc1ccc(O)cc1)c1cc(C(=O)O)c2cc(-c3cccs3)ccc2n1 |
| 0.04 | > 10 | < 0.1 | 0.05 | COC(=O)[C@H](Cc1ccc(O)cc1)NC(=O)c1cc(C(=O)O)c2cc(-c3cccc(C(F)(F)F)c3)ccc2n1 |
| 0.076 | > 10 | < 0.1 |  | CCCCCCc1ccc2nc(C(=O)N[C@@H](Cc3ccc(O)cc3)C(=O)OC)cc(C(=O)O)c2c1 |
| > 40 | > 10 | > 40 |  | COC(=O)[C@H](Cc1cccc(O)c1)NC(=O)c1cc(C(=O)O)c2cc(-c3cccc(C(F)(F)F)c3)ccc2n1 |
| > 40 | > 10 | > 40 |  | COC(=O)[C@H](Cc1ccc(O)cc1)NC(=O)c1cc(CO)c2cc(-c3cccc(C(F)(F)F)c3)ccc2n1 |
| 4 | > 10 | 2.5 |  | COC(=O)[C@H](Cc1ccc(F)cc1)NC(=O)c1cc(C(=O)O)c2cc(-c3cccc(C(F)(F)F)c3)ccc2n1 |
| > 10 | > 10 | 12 |  | O=C(N[C@@H](Cc1ccc(O)cc1)C(=O)O)c1cc(C(=O)O)c2cc(-c3cccc(C(F)(F)F)c3)ccc2n1 |
| 0.9 | > 10 | 0.9 |  | COC(=O)[C@H](Cc1ccc(O)cc1)NC(=O)c1cc(C(=O)O)c2cc(-c3ccc(Cl)cc3)ccc2n1 |
